Measured values from patent US6482921B1, “Uridyl peptide antibiotic (UPA) derivatives, their synthesis and use” (Essential Therapeutics, Inc., priority 1999, dated 2002).
Values after ≈ are worked out from the molar mass of the structure shown.

Experiments:
Type in all cases: cell-based
Escherichia Coli MC 4100 = assay: MIC broth microdilution, E. coli MC 4100 (wild type); settings: E. coli MC 4100
[1] = tested on: Staphylococcus aureus 8325-4; assay: MIC broth microdilution, S. aureus 8325-4 (wild type); settings: S. aureus 8325-4
[2] = tested on: Pseudomonas aeruginosa PAM 1020; assay: MIC broth microdilution, P. aeruginosa PAM 1020 (wild type); settings: P. aeruginosa PAM 1020
[3] = tested on: Pasteurella multocida pm002; assay: MIC broth microdilution, P. multocida pm002 (wild type)
[4] = tested on: Pseudomonas aeruginosa PAM 1135; assay: MIC broth microdilution, P. aeruginosa PAM 1135 (high level UPA resistance); settings: P. aeruginosa PAM 1135 UPA1^r
[5] = tested on: Pseudomonas aeruginosa PAM 1154; assay: MIC broth microdilution, P. aeruginosa PAM 1154 (OprM::Hg); settings: P. aeruginosa PAM 1154 OprM::Hg
[6] = tested on: Pseudomonas aeruginosa PAM 1323; assay: MIC broth microdilution, P. aeruginosa PAM 1323 (medium level UPA resistance)
[7] = tested on: Escherichia Coli MC 4100 AcrAB UPA3r; assay: MIC broth microdilution, E. coli MC 4100 AcrAB UPA3r (ΔAcrAB, UPA resistant); settings: E. coli AcrAB UPA3^r
[8] = tested on: Staphylococcus aureus ATCC 29213; assay: MIC broth microdilution, S. aureus ATCC 29213 (wild type); settings: S. aureus ATCC 29213
[9] = tested on: Escherichia Coli MC 4100 AcrAB; assay: MIC broth microdilution, E. coli MC 4100 AcrAB (ΔAcrAB); settings: E. coli AcrAB

Compound | MIC (μg/ml) Broth microdilution (Escherichia Coli MC 4100) | MIC (μg/ml) Broth microdilution [1] | MIC (μg/ml) Broth microdilution [2] | MIC (μg/ml) Broth microdilution [3] | MIC (μg/ml) Broth microdilution [4] | MIC (μg/ml) Broth microdilution [5] | MIC (μg/ml) Broth microdilution [6] | MIC (μg/ml) Broth microdilution [7] | MIC (μg/ml) Broth microdilution [8] | MIC (μg/ml) Broth microdilution [9]
CC(C(NC(=O)C(Cc1ccccc1)NC(=O)NC(Cc1c[nH]c2ccccc12)C(=O)O)C(=O)NCC1CC(O)C(n2ccc(=O)[nH]c2=O)O1)N(C)C(=O)CCCCN [Compound 123, 1-[5′-[(2S,3S)-N^3-(5-Aminopentanoyl)-N^2-[N-[[(1S)-1-carboxy-2-indol-3-ylethyl]carbamoyl]-L-phenylalanyl]-N^3-methyl-2,3-diaminobutyramido]-3′,5′-dideoxy-α-L-arabinofuranosyl]uracil] | 512 µg/mL (≈ 626 µM) | >512 µg/mL | 32 µg/mL (≈ 39.1 µM) | >512 µg/mL | 256 µg/mL (≈ 313 µM) | 16 µg/mL (≈ 19.6 µM) | 256 µg/mL (≈ 313 µM) | 512 µg/mL (≈ 626 µM) | >512 µg/mL | 4 µg/mL (≈ 4.89 µM)
CC(C(NC(=O)C(Cc1ccc(F)cc1)NC(=O)NC(Cc1ccc(O)cc1)C(=O)O)C(=O)NCC1CC(O)C(n2ccc(=O)[nH]c2=O)O1)N(C)C(=O)CCCCN [Compound 124, 1-[5′-[(2S,3S)-N^3-(5-Aminopentanoyl)-N^2-[N-[[(1S)-1-carboxy-4-hydroxyphenethyl]carbamoyl]-L-4-fluorophenylalanyl]-N^3-methyl-2,3-diaminobutyramido]-3′,5′-dideoxy-α-L-arabinofuranosyl]uracil] | 256 µg/mL (≈ 315 µM) | >512 µg/mL | 512 µg/mL (≈ 630 µM) | >512 µg/mL | >512 µg/mL | 128 µg/mL (≈ 157 µM) | >512 µg/mL | 128 µg/mL (≈ 157 µM) | >512 µg/mL | 2 µg/mL (≈ 2.46 µM)
CC(N)C(=O)N(C)C(C)C(NC(=O)C(Cc1ccccc1)NC(=O)NC(Cc1cccs1)C(=O)O)C(=O)NCC1CC(O)C(n2ccc(=O)[nH]c2=O)O1 [Compound 125, 1-[5′-[(2S,3S)-N^3-L-Alanyl-N^2-[N-[[(1S)-1-carboxy-2-(2-thienyl)ethyl]carbamoyl]-L-phenylalanyl]-N^3-methyl-2,3-diaminobutyramidol-3′,5′-dideoxy-α-L-arabinofuranosyl]uracil] | >512 µg/mL | >512 µg/mL | 64 µg/mL (≈ 84.6 µM) | >512 µg/mL | >512 µg/mL | 8 µg/mL (≈ 10.6 µM) | >512 µg/mL | 64 µg/mL (≈ 84.6 µM) | >512 µg/mL | 8 µg/mL (≈ 10.6 µM)
CC(N)C(=O)N(C)C(C)C(NC(=O)C(Cc1ccc([N+](=O)[O-])cc1)NC(=O)NC(Cc1ccc(O)cc1)C(=O)O)C(=O)NCC1CC(O)C(n2ccc(=O)[nH]c2=O)O1 [Compound 126, 1-[5′-[(2S,3S)-N^3-L-Alanyl-N^2-[N-[[(1S)-1-carboxy-4-hydroxyphenethyl]carbamoyl]-L-4-nitrophenylalanine-N^3-methyl-2,3-diaminobutyramido]-3′,5′-dideoxy-α-L-arabinofuranosyl]uracil] | 16 µg/mL (≈ 19.7 µM) | 256 µg/mL (≈ 315 µM) | 128 µg/mL (≈ 158 µM) | 512 µg/mL (≈ 631 µM) | >512 µg/mL | 16 µg/mL (≈ 19.7 µM) | >512 µg/mL | 4 µg/mL (≈ 4.93 µM) | 512 µg/mL (≈ 631 µM) | <1 µg/mL
CNC(C)C(NC(=O)C(Cc1ccc(F)cc1)NC(=O)NC(Cc1ccc(O)cc1)C(=O)O)C(=O)NCC1CC(O)C(n2ccc(=O)[nH]c2=O)O1 [Compound 127, 1-[5′-[(2S,3S)-N^2-[N-[[(1S)-1-carboxy-4-hydroxyphenethyl)carbamoyl]-L-4-fluorophenylalanyl]-N^3-methyl-2,3-diaminobutyramidol-3′,5′-dideoxy-α-L-arabinofuranosyl]uracil] | >512 µg/mL | >512 µg/mL | >512 µg/mL | >512 µg/mL | >512 µg/mL | 512 µg/mL (≈ 717 µM) | >512 µg/mL | 32 µg/mL (≈ 44.8 µM) | >512 µg/mL | 4 µg/mL (≈ 5.6 µM)
CC(C(NC(=O)C(Cc1ccc(F)cc1)NC(=O)NC(Cc1ccc(O)cc1)C(=O)O)C(=O)NCC1CC(O)C(n2ccc(=O)[nH]c2=O)O1)N(C)C(=O)CN [Compound 129, 1-[5′-[(2S,3S)-N^2-[N-[[(1S)-1-Carboxy-4-hydroxyphenethyl)-L-4-fluorophenylalanyl]-N^3-glycyl-N^3-methyl-2,3-diaminobutyramido]-3′,5′-dideoxy-α-L-arabinofuranosyl]uracil] | 8 µg/mL (≈ 10.4 µM) | 512 µg/mL (≈ 664 µM) | 32 µg/mL (≈ 41.5 µM) | 256 µg/mL (≈ 332 µM) | >512 µg/mL | 8 µg/mL (≈ 10.4 µM) | >512 µg/mL | 2 µg/mL (≈ 2.59 µM) | >512 µg/mL | <1 µg/mL
CC(C(NC(=O)C(Cc1ccc(F)cc1)NC(=O)NC(Cc1ccc(O)cc1)C(=O)O)C(=O)NCC1CC(O)C(n2ccc(=O)[nH]c2=O)O1)N(C)C(=O)c1cccc(N)c1 [Compound 131, 1-[5′-[(2S,3S)-N^3-3-Aminobenzoyl-N^2-[N-[[(1S)-1-carboxy-4-hydroxyphenethyl]carbamoyl]-L-4-fluorophenylalanyl]-N^3-methyl-2,3-diaminobutyramido]-3′,5′-dideoxy-α-Larabinofuranosyl]uracil] | >512 µg/mL | >512 µg/mL | 512 µg/mL (≈ 615 µM) | >512 µg/mL | >512 µg/mL | 512 µg/mL (≈ 615 µM) | >512 µg/mL | 512 µg/mL (≈ 615 µM) | 512 µg/mL (≈ 615 µM) | 16 µg/mL (≈ 19.2 µM)
CC(N)C(=O)N(C)C(C)C(NC(=O)C(Cc1cscn1)NC(=O)NC(Cc1ccc(O)cc1)C(=O)O)C(=O)NCC1CC(O)C(n2ccc(=O)[nH]c2=O)O1 [Compound 132, 1-[5′-[(2S,3S)-N^3-L-Alanyl-N^2-[N-[[(1S)-1-carboxy-4-hydroxyphenethyl]carbamoyl]-L-thiazolylalanyl]-N^3-methyl-2,3-diaminobutyramido]-3′,5′-dideoxy-α-L-arabinofuranosyl]uracil] | 256 µg/mL (≈ 331 µM) | >512 µg/mL | 128 µg/mL (≈ 165 µM) | >512 µg/mL | >512 µg/mL | 32 µg/mL (≈ 41.4 µM) | >512 µg/mL | 32 µg/mL (≈ 41.4 µM) | >512 µg/mL | 8 µg/mL (≈ 10.3 µM)
CC(N)C(=O)N(C)C(C)C(NC(=O)C(CCc1ccccc1)NC(=O)NC(Cc1ccc(O)cc1)C(=O)O)C(=O)NCC1CC(O)C(n2ccc(=O)[nH]c2=O)O1 [Compound 137, 1-[5′-[(2S,3S)-N^3-L-Alanyl-N^2-[N-[[(1S)-1-carboxy-4-hydroxyphenethyl]carbamoyl]-L-homophenylalanyl]-N^3-methyl-2,3-diaminobutyramido]-3′,5′-dideoxy-α-L-arabinofuranosyl]uracil] | 512 µg/mL (≈ 656 µM) | >512 µg/mL | 64 µg/mL (≈ 82 µM) | >512 µg/mL | >512 µg/mL | 128 µg/mL (≈ 164 µM) | >512 µg/mL | 256 µg/mL (≈ 328 µM) | >512 µg/mL | 16 µg/mL (≈ 20.5 µM)
CC(N)C(=O)N(C)C(C)C(NC(=O)C(CCc1ccccc1)NC(=O)NC(Cc1c[nH]c2ccccc12)C(=O)O)C(=O)NCC1CC(O)C(n2ccc(=O)[nH]c2=O)O1 [Compound 138, 1-[5′-[(2S,3S)-N^3-L-Alanyl-N^2-[N-[[(1S)-1-carboxy-2-indol-3-ylethyl]carbamoyl]-L-homophenylalanyl]-N^3-methyl-2,3-diaminobutyramido]-3′,5′-dideoxy-α-L-arabinofuranosyl]uracil] | 512 µg/mL (≈ 637 µM) | >512 µg/mL | 32 µg/mL (≈ 39.8 µM) | >512 µg/mL | >512 µg/mL | 8 µg/mL (≈ 9.95 µM) | >512 µg/mL | 256 µg/mL (≈ 318 µM) | >512 µg/mL | 2 µg/mL (≈ 2.49 µM)
